This note sets out measurements from patent US10934309B2, “Tricyclic quinone derivative” (Boston Biomedical, Inc., priority 2014, dated 2021).

Molecules are shown by their SMILES.

Broadly, the IC50 is the concentration at which inhibition is half-maximal.

Type in all cases: cell-based, human
In experiment [1] the test system is HCT-116 cells. Kind of experiment: Inhibition assay of cancer cell sphere-forming ability (Test Example 2), HCT-116. Conditions: Homo sapiens, HCT-116, 96 h, HCT-116 cells, Ultra-Low Attachment plate, serum-free DMEM/F12 with B27, EGF, bFGF, insulin, 4 days, Cell Titer-Glo; read-out: IC50 (μM) HCT; concentration for 50% inhibition of cell proliferation (Sphere IC50 value). The protocol:
(§1) HCT-116 cells (derived from human colon adenocarcinoma), HT-29 cells (derived from human colon cancer), FaDu cells (derived from human hypopharynx cancer) were obtained from American Type Culture Collection (ATCC). […] HCT-116 cells, HT-29 cells, and FaDu cells were seeded onto 384 Well Black Clear Bottom Ultra-Low Attachment Microplate (Corning Cat. […] A test substance was added so that the final concentration of DMSO is 0.1%, and then cultured for 4 days. […] A test shown in Test example 2 was carried out for compounds obtained in the Examples.
Background: ATP-based viability assays read luminescence as a measure of living cells.

Experiment [2] has as its system FaDu cells. Nature of the experiment: Proliferation inhibition assay of cancer cells (Test Example 1), FaDu. The settings on record: Homo sapiens, FaDu, 96 h, FaDu cells, cultured for 4 days, Cell Titer-Glo; read-out: IC50 (μM) FaDu; concentration for 50% inhibition of cell proliferation (Bulk IC50 value). The method, then: (§2) HCT-116 cells (derived from human colon adenocarcinoma), HT-29 cells (derived from human colon cancer), and FaDu cells (derived from human hypopharynx cancer) were obtained from American Type Culture Collection (ATCC). […] After cells were seeded at 300-600 cells/well onto black μClear-plate 384 well (Greiner bio-one Cat. No. 781091), a test substance was added such that the final concentration of DMSO is 0.1%, and cultured for 4 days. […] A test shown in Test example 1 was carried out for compounds obtained in the Examples.

Experiment [3] deals with cancer cells. Kind of experiment: Inhibition test of cancer cell sphere-forming ability, overall statement on Table 2. The settings on record: summary of Table 2. The protocol:
HCT-116 cells (derived from human colon adenocarcinoma), HT-29 cells (derived from human colon cancer), FaDu cells (derived from human hypopharynx cancer) were obtained from American Type Culture Collection (ATCC). HCT-116 cells and HT-29 cells were cultured using McCoy's 5a medium containing 10% fetal bovine serum (FBS) and 1% penicillin/streptomycin, and FaDu cells were cultured using MEM medium containing 10% FBS, 1% non-essential amino acid, 1% sodium pyruvate, and 1% penicillin/streptomycin, respectively, at 37° C. in the presence of 5% CO2. HCT-116 cells, HT-29 cells, and FaDu cells were seeded onto 384 Well Black Clear Bottom Ultra-Low Attachment Microplate (Corning Cat. No. 3827) using DMEM/F12 medium containing 2% B27 supplement (GIBCO), 20 ng/mL epidermal growth factor (EGF) (peprotech), 10 ng/mL basic fibroblast growth factor (bFGF) (peprotech), 5 μg/mL insulin (Sigma), and 1% penicillin/streptomycin to be 350-800 cells/well. A test substance was added so that the final concentration of DMSO is 0.1%, and then cultured for 4 days. The number of living cells was then counted using Cell Titer-Glo (registered trademark) Luminescent Cell Viability Assay (Promega) to calculate the concentration for 50% inhibition of cell proliferation of respective test substances (Sphere IC50 value; μM).

Experiment [4] relates to HT-29 cells. Kind of experiment: Proliferation inhibition assay of cancer cells (Test Example 1), HT-29. The settings on record: Homo sapiens, HT-29, 96 h, HT-29 cells, cultured for 4 days, Cell Titer-Glo; read-out: IC50 (μM) HT; concentration for 50% inhibition of cell proliferation (Bulk IC50 value). The method, then: as §2
Experiment [5] deals with HCT-116 cells. Nature of the experiment: Proliferation inhibition assay of cancer cells (Test Example 1), HCT-116. Conditions: Homo sapiens, HCT-116, 96 h, HCT-116 cells, cultured for 4 days, Cell Titer-Glo; read-out: IC50 (μM) HCT; concentration for 50% inhibition of cell proliferation (Bulk IC50 value). The method, then: as §2
The subject of experiment [6] is HT-29 cells. Nature of the experiment: Inhibition assay of cancer cell sphere-forming ability (Test Example 2), HT-29. The settings on record: Homo sapiens, HT-29, 96 h, HT-29 cells, Ultra-Low Attachment plate, serum-free DMEM/F12 with B27, EGF, bFGF, insulin, 4 days, Cell Titer-Glo; read-out: IC50 (μM) HT; concentration for 50% inhibition of cell proliferation (Sphere IC50 value). The protocol: as §1

For experiment [7], the system named is FaDu cells. Nature of the experiment: Inhibition assay of cancer cell sphere-forming ability (Test Example 2), FaDu. Conditions: Homo sapiens, FaDu, 96 h, FaDu cells, Ultra-Low Attachment plate, serum-free DMEM/F12 with B27, EGF, bFGF, insulin, 4 days, Cell Titer-Glo; read-out: IC50 (μM) FaDu; concentration for 50% inhibition of cell proliferation (Sphere IC50 value). The method, then: as §1

For `O=C1c2cnccc2C(=O)c2sc(CNCC(F)F)cc21` [Example 26, 2-{[(2,2-difluoroethyl)amino]methyl}thieno[2,3-g]isoquinoline-4,9-dione], the concentration for half-maximal inhibition (IC50) in experiment [1] was 0.17 µM; in experiment [2], 0.02 µM; in experiment [4], 0.45 µM; in experiment [5], 0.09 µM; in experiment [6], 0.07 µM; in experiment [7] it was below 0.01 µM. In addition, the “effect to inhibit cancer cell sphere-forming ability (in words)” value in experiment [3] was “particularly strong effect”.
`CC(C)(O)c1cc2c(s1)C(=O)c1ccncc1C2=O` [Example 15, 2-(2-hydroxypropan-2-yl)thieno[2,3-g]isoquinoline-4,9-dione]: the 50% inhibitory concentration (IC50) in experiment [1] was 0.4 µM; in experiment [2], 0.04 µM; in experiment [4], 0.61 µM; in experiment [5], 0.34 µM; in experiment [6], 0.46 µM; in experiment [7], below 0.01 µM. Also, the “effect to inhibit cancer cell sphere-forming ability (in words)” value in experiment [3] was “particularly strong effect”.
In the case of `CC(O)c1cc2c(s1)C(=O)c1ccncc1C2=O` (stereo not drawn) [Example 13, 2-(1-hydroxyethyl)thieno[2,3-g]isoquinoline-4,9-dione], the concentration for half-maximal inhibition (IC50) was 0.05 µM in experiment [1]; 0.02 µM in experiment [2]; 0.37 µM in experiment [4]; 0.06 µM in experiment [5]; 0.06 µM in experiment [6]; below 0.01 µM in experiment [7]. Also, in experiment [3], the “effect to inhibit cancer cell sphere-forming ability (in words)” value is reported as “particularly strong effect”.
As to `CCN(CCOC)Cc1cc2c(s1)C(=O)c1ccncc1C2=O` [Example 24, 2-{[ethyl(2-methoxyethyl)amino]methyl}thieno[2,3-g]isoquinoline-4,9-dione], the IC50 in experiment [1] was 0.43 µM; in experiment [2], 0.03 µM; in experiment [4], 0.65 µM; in experiment [5], 0.34 µM; in experiment [6] it was 0.18 µM; in experiment [7], below 0.01 µM. In addition, the “effect to inhibit cancer cell sphere-forming ability (in words)” value in experiment [3] is listed as “particularly strong effect”.
On to `O=C1c2cc(C(=O)N3CCOCC3)oc2C(=O)c2sccc21` [Example 55, 2-(morpholin-4-ylcarbonyl)thieno[3,2-f][1]benzofuran-4,8-dione], for which the half-inhibitory concentration (IC50) in experiment [1] stood at 0.04 µM; in experiment [2] it was 0.06 µM; in experiment [4], 0.58 µM; in experiment [5] it was 0.05 µM; in experiment [6], 0.04 µM; in experiment [7], 0.01 µM. In experiment [3], the “effect to inhibit cancer cell sphere-forming ability (in words)” value is recorded as “particularly strong effect”.
For the compound `CC(=O)N1CCN(Cc2cc3c(s2)C(=O)c2ccncc2C3=O)CC1` [Example 27, 2-[(4-acetylpiperazin-1-yl)methyl]thieno[2,3-g]isoquinoline-4,9-dione], the IC50 was 0.47 µM in experiment [1]; 0.03 µM in experiment [2]; 0.4 µM in experiment [4]; 0.5 µM in experiment [5]; 0.06 µM in experiment [6]; below 0.01 µM in experiment [7]. Besides, in experiment [3], the “effect to inhibit cancer cell sphere-forming ability (in words)” value is “particularly strong effect”.
For the compound `CC(O)c1cc2c(o1)C(=O)c1ncccc1C2=O` (stereo not drawn) [Example 51, 2-(1-hydroxyethyl)furo[3,2-g]quinoline-4,9-dione], the IC50 was determined as 0.09 µM in experiment [1]; 0.49 µM in experiment [2]; 0.84 µM in experiment [4]; 0.39 µM in experiment [5]; 0.43 µM in experiment [6]; 0.08 µM in experiment [7].
In the case of `CC(=O)c1cc2c(o1)C(=O)c1ncccc1C2=O` [Example 50, 2-acetylfuro[3,2-g]quinoline-4,9-dione], the IC50 in experiment [1] amounted to 0.26 µM; in experiment [2], 0.47 µM; in experiment [4] it was 0.59 µM; in experiment [5], 0.47 µM; in experiment [6] it was 0.58 µM; in experiment [7] it was 0.17 µM.
Regarding `CC(O)c1cc2c(s1)C(=O)c1cccnc1C2=O` (stereo not drawn) [Example 2, 2-(1-hydroxyethyl)thieno[2,3-g]quinoline-4,9-dione], the IC50 in experiment [1] was determined as 0.23 µM; in experiment [2], 0.1 µM; in experiment [4] it was 0.86 µM; in experiment [5], 0.08 µM; in experiment [6], 0.55 µM; in experiment [7] it was 0.12 µM.
As to `CCN(Cc1cc2c(o1)C(=O)c1cccnc1C2=O)C(=O)CC(C)C` [Example 9, N-[(4,9-dioxo-4,9-dihydrofuro[2,3-g]quinolin-2-yl)methyl]-N-ethyl-3-methylbutanamide], the 50% inhibitory concentration (IC50) in experiment [1] was 0.28 µM; in experiment [2], 0.6 µM; in experiment [4], above 10 µM; in experiment [5] it was 0.53 µM; in experiment [6], 0.61 µM; in experiment [7] it was 0.1 µM.
Turning to `CC(=O)c1cc2c(s1)C(=O)c1ncccc1C2=O` [Example 36, 2-acetylthieno[3,2-g]quinoline-4,9-dione], the 50% inhibitory concentration (IC50) worked out at 0.07 µM in experiment [1]; 0.09 µM in experiment [2]; 0.73 µM in experiment [4]; 0.1 µM in experiment [5]; 0.25 µM in experiment [6]; 0.05 µM in experiment [7].
For `O=C1c2cc(C(=O)N3CCOCC3)sc2C(=O)c2nccnc21` [Example 57, 7-(morpholin-4-ylcarbonyl)thieno[2,3-g]quinoxaline-5,9-dione], the IC50 in experiment [1] was 4.97 µM; in experiment [2] it was 8.21 µM; in experiment [4] it was above 10 µM; in experiment [5] it was 5.71 µM; in experiment [6] it was above 10 µM; in experiment [7], 5.65 µM.
Regarding `CC(O)c1cc2c(o1)C(=O)c1cccnc1C2=O` (stereo not drawn) [Example 43, 2-(1-hydroxyethyl)furo[2,3-g]quinoline-4,9-dione], the concentration for half-maximal inhibition (IC50) is 0.51 µM in experiment [1]; 0.66 µM in experiment [2]; 5.62 µM in experiment [4]; 0.62 µM in experiment [5]; 0.6 µM in experiment [6]; 0.33 µM in experiment [7].
As to `CC(=O)c1cc2c(o1)C(=O)c1sccc1C2=O` [Example 52, 2-acetylthieno[3,2-f][1]benzofuran-4,8-dione], the IC50 stood at 0.05 µM in experiment [1]; 0.43 µM in experiment [2]; 0.64 µM in experiment [4]; 0.07 µM in experiment [5]; 0.08 µM in experiment [6]; 0.06 µM in experiment [7].
In the case of `O=C1c2cc(CN3CCOCC3)sc2C(=O)c2nccnc21` [Example 59, 7-(morpholin-4-ylmethyl)thieno[2,3-g]quinoxaline-5,9-dione], the half-inhibitory concentration (IC50) in experiment [1] was 0.05 µM; in experiment [2] it was 0.36 µM; in experiment [4], 0.84 µM; in experiment [5], 0.28 µM; in experiment [6], 0.63 µM; in experiment [7], 0.06 µM.
